From patent US20110207926A1, “NOVEL DIHYDROTRIAZINE DERIVATIVE” (HAMARI CHEMICALS, LTD., priority 2008, published 2011) come the findings set out here.

For series [1], the system named is S. aureus ATCC 6538. Nature of the series: Bactericidal activity test (MBC measurement). In kind it is cell-based, Staphylococcus aureus. Particulars: Staphylococcus aureus, read-out: MBC. As for the experimental part:
(§1) Each strain was cultured in Trypticase Soy agar medium for 18 to 20 hr, suspended in 0.1% peptone saline, and prepared to OD 600 nm, 1.0 McFarland. The suspension was further diluted with 0.1% peptone saline to give a test bacteria solution (targeted value; 2×10^7 CFU/mL).
(§2) At 0.5, 1 and 3 min from the start of the reaction, a part of the reaction mixture was sampled and mixed with an equal amount of a neutralizing agent (10% Tween 80, 3% lecithin/aqueous solution) to terminate the bactericidal reaction. The reaction mixture was inoculated to a 96 well microplate dispensed with 180 μL of Tripticase Soy liquid medium in advance, and statically cultured at 37° C. for 20 to 24 hr. Thereafter, the presence or absence of growth was visually evaluated, and the minimum concentration at which growth was not observed was taken as the minimal bactericidal concentration (MBC value) of each action time. The numerical values in the Tables show MBC, the unit is μg/mL, S. aureus means Staphylococcus aureus, MRSA means methicillin-resistant Staphylococcus aureus, E. coli means Escherichia coli, and P. aeruginosa means Pseudomonas aeruginosa.

The test system of series [2] is MRSA ATCC 33591. Put plainly: Bactericidal activity test (MBC measurement). Conditions: Staphylococcus aureus, read-out: MBC. It is filed as cell-based, methicillin-resistant Staphylococcus aureus. Here is the method: as §1, §2
In series [3] the test system is E. coli ATCC 25922. Put plainly: Bactericidal activity test (MBC measurement). In kind it is cell-based, Escherichia coli. Conditions: Escherichia coli, read-out: MBC. Here is the method:
as §1, §2

Series [4] concerns P. aeruginosa ATCC 27853. Put plainly: Bactericidal activity test (MBC measurement). In kind it is cell-based, Pseudomonas aeruginosa. Conditions: Pseudomonas aeruginosa, read-out: MBC. As for the experimental part:
as §1, §2

Series [5] deals with P. aeruginosa PAO-1. Put plainly: Bactericidal activity test (MBC measurement). In kind it is cell-based, Pseudomonas aeruginosa. Particulars: Pseudomonas aeruginosa, read-out: MBC. Here is the method:
as §1, §2

The nature of series [6]: Skin sensitivity test, LLNA-BrdU method (lymph node weight). It is filed as in vivo. Particulars: 5 w/v % in acetone/olive oil 4:1, transdermal to auricle once a day for 3 days, mice. As for the experimental part: For application of an external bactericidal/disinfectant agent to the skin, the sensitivity (allergenicity) is desirably as small as possible. […] The sensitivity was evaluated by a Local lymph node assay (LLNA) method using Bromodeoxyuridine (BrdU). In this test, measurement of the amount of BrdU uptaken by the lymph node using an ELISA kit was not performed, and the evaluation was based solely on the weight increase of the lymph node.
8-Week-old female CBA/JN Crlj mice were grouped (3 per group) according to the adequate strafication method based on the body weight (about 20 g) on the first day of administration. A test substance was prepared to 5 w/v % for each test substance by using a mixed solution of acetone and olive oil (v/v=4:1, A00). This was repeatedly administered transdermally to the auricle of the mice at 25 μL/auricle (50 for both auricles) once a day for 3 days. Two days after the final administration, BrdU 10 mg/mL (0.5 mL/mouse) was intraperitoneally administered. Three days after the final transdermal administration (next day of BrdU administration), carbon dioxide was given by inhalation to a comfortable death, and the auricle lymph node was isolated and the weight thereof was measured.

Series [7] is described as follows: Water solubility test (Japanese Pharmacopoeia solubility test method). It is filed as physicochemical. Conditions: 20±5° C., dissolution in 30 min. As for the experimental part: According to the Japanese Pharmacopoeia solubility test method, the compounds of Examples 1 and 7 of the present invention and the corresponding N-methyl unsubstituted compounds were examined for water solubility. To be specific, a test substance was powderized, placed in water and the mixture was vigorously shaken for 30 sec every 5 min at 20±5° C. The solubility was evaluated based on the degree of dissolution in 30 min by reference to the following Table 9.

The mark [8] stands for this setting: ATCC6538, 0.5 min, S. aureus ATCC 6538, action time 0.5 min.
[9] abbreviates: 0.5 min, MRSA ATCC 33591, action time 0.5 min.
Where [10] appears, read: ATCC25922, 0.5 min, E. coli ATCC 25922, action time 0.5 min.
Setting [11] is: ATCC27853, 0.5 min, P. aeruginosa ATCC 27853, action time 0.5 min.
Setting [12] is: PAO1, 0.5 min, P. aeruginosa PAO-1, action time 0.5 min.

Where two headings read alike, the source gives them in different places.

In general, MBC refers to the smallest concentration meeting the test's criterion for killing.

As for `CCCCCCCCNC1=NC(C)(C)NC(N(C)Cc2ccccc2)=N1` [Example 5, N^4-octyl-1,6-dihydro-6,6-dimethyl-N^2-benzyl-N^2-methyl-1,3,5-triazine-2,4-diamine acetate], the MBC was 200 µg/mL in series [1] (setting [8]); 50 µg/mL in series [2] (setting [9]); 25 µg/mL in series [3] (setting [10]); 12.5 µg/mL in series [4] (setting [11]); 25 µg/mL in series [5] (setting [12]). Moreover, the “SI value (Stimulation index, lymph node weight ratio to solvent group)” value in series [6] is on record as 0.9.
In the case of `CCCCCCCCN(C)C1=NC(C)(C)NC(NCc2ccc(C)cc2)=N1` [Example 7, N^4-octyl-N^4-methyl-1,6-dihydro-6,6-dimethyl-N^2-(4-methylbenzyl)-1,3,5-triazine-2,4-diamine acetate], the “water (mL) to dissolve 1 g” value in series [7] was 0.9 mL. The “evaluation (water solubility)” value in series [7] (criteria of Table 9) was “very soluble (less than 1 mL)”. For the same compound, the “SI value (Stimulation index, lymph node weight ratio to solvent group)” value in series [6] worked out at 2.6.
In the case of `CCCCCCCCN(C)C(=N)/N=C(\N)NCc1ccc(Cl)cc1.Cl` [Example 27, N^5-octyl-N^5-methyl-N^1-(4-chlorobenzyl)biguanide hydrochloride], the MBC was determined as 50 µg/mL in series [1] (setting [8]); 25 µg/mL in series [1] (ATCC6538, 1 min, S. aureus ATCC 6538, action time 1 min); 25 µg/mL in series [1] (ATCC6538, 0.05 h, S. aureus ATCC 6538, action time 3 min); 50 µg/mL in series [2] (setting [9]); 25 µg/mL in series [2] (1 min, MRSA ATCC 33591, action time 1 min); 25 µg/mL in series [2] (0.05 h, MRSA ATCC 33591, action time 3 min). Also, the MBC came out at 25 µg/mL in series [3] (setting [10]); 6.25 µg/mL in series [3] (ATCC25922, 1 min, E. coli ATCC 25922, action time 1 min); 6.25 µg/mL in series [3] (ATCC25922, 0.05 h, E. coli ATCC 25922, action time 3 min); 12.5 µg/mL in series [4] (setting [11]); 12.5 µg/mL in series [4] (ATCC27853, 1 min, P. aeruginosa ATCC 27853, action time 1 min); 6.25 µg/mL in series [4] (ATCC27853, 0.05 h, P. aeruginosa ATCC 27853, action time 3 min). For the same compound, the MBC amounted to 12.5 µg/mL in series [5] (setting [12]); 12.5 µg/mL in series [5] (PAO1, 1 min, P. aeruginosa PAO-1, action time 1 min); 12.5 µg/mL in series [5] (PAO1, 0.05 h, P. aeruginosa PAO-1, action time 3 min). In series [6], the “SI value (Stimulation index, lymph node weight ratio to solvent group)” value is recorded as 2.4.
As to `CCCCCCCCNC1=NC(C)(C)N=C(NCc2ccc(C)cc2)N1` [Ref. Ex. 5, 4-octylamino-1,6-dihydro-6,6-dimethyl-2-(4-methylbenzylamino-1,3,5-triazine gluconate, reference compound], in series [6], the “SI value (Stimulation index, lymph node weight ratio to solvent group)” value is 4.4.
